# Columns and labels:
# Format in all cases: functional
# [1] = test system: HCT-15; experiment: Growth inhibition of human HCT15 cells assessed as cell growth at 0.1 uM after 48 hrs by SRB assay relative to control; conditions: HCT-15, 48 h, read-out: Activity
# [2] = test system: COLO 205; experiment: Growth inhibition of human COLO205 cells assessed as cell growth at 0.01 uM after 48 hrs by SRB assay relative to control; conditions: COLO 205, 48 h, read-out: Activity
# [3] = test system: MOLT-4; experiment: Growth inhibition of human MOLT4 cells assessed as cell growth at 0.01 uM after 48 hrs by SRB assay relative to control; conditions: MOLT-4, 48 h, read-out: Activity
# [4] = test system: CAKI-1; experiment: Growth inhibition of human Caki1 cells assessed as cell growth at 0.01 uM after 48 hrs by SRB assay relative to control; conditions: CAKI-1, 48 h, read-out: Activity
# [5] = test system: RPMI-8226; experiment: Growth inhibition of human RPMI8226 cells assessed as cell growth at 10 uM after 48 hrs by SRB assay relative to control; conditions: RPMI-8226, 48 h, read-out: Activity
# [6] = test system: U-251; experiment: Growth inhibition of human U251 cells assessed as cell growth at 10 uM after 48 hrs by SRB assay relative to control; conditions: U-251, 48 h, read-out: Activity
# [7] = test system: Malme-3M; experiment: Growth inhibition of human MALME-3M cells assessed as cell growth at 100 uM after 48 hrs by SRB assay relative to control; conditions: read-out: Activity
# [8] = test system: SF-268; experiment: Growth inhibition of human SF268 cells assessed as cell growth at 100 uM after 48 hrs by SRB assay relative to control; conditions: SF-268, 48 h, read-out: Activity
# [9] = test system: NCI/ADR-RES; experiment: Growth inhibition of human NCI-ADR-RES cells assessed as cell growth at 0.01 uM after 48 hrs by SRB assay relative to control; conditions: read-out: Activity
# [10] = test system: NCI-H322M; experiment: Growth inhibition of human NCI-H322M cells assessed as cell growth at 10 uM after 48 hrs by SRB assay relative to control; conditions: read-out: Activity
# [11] = test system: SW-620; experiment: Growth inhibition of human SW620 cells assessed as cell growth at 10 uM after 48 hrs by SRB assay relative to control; conditions: SW-620, 48 h, read-out: Activity
# [12] = test system: HCT-15; experiment: Growth inhibition of human HCT15 cells assessed as cell growth at 1 uM after 48 hrs by SRB assay relative to control; conditions: HCT-15, 48 h, read-out: Activity
# [13] = test system: HCT-116; experiment: Growth inhibition of human HCT116 cells assessed as cell growth at 10 uM after 48 hrs by SRB assay relative to control; conditions: HCT-116, 48 h, read-out: Activity
# [14] = test system: IGROV-1; experiment: Cytotoxicity against human IGROV1 cells assessed as growth inhibition after 48 hrs by SRB assay; conditions: IGROV-1, 48 h
# [15] = test system: BT-549; experiment: Growth inhibition of human BT549 cells assessed as cell growth at 0.01 uM after 48 hrs by SRB assay relative to control; conditions: BT-549, 48 h, read-out: Activity
# [16] = test system: SK-MEL-5; experiment: Growth inhibition of human SK-MEL-5 cells assessed as cell growth at 1 uM after 48 hrs by SRB assay relative to control; conditions: SK-MEL-5, 48 h, read-out: Activity
# [17] = test system: SW-620; experiment: Growth inhibition of human SW620 cells assessed as cell growth at 0.01 uM after 48 hrs by SRB assay relative to control; conditions: SW-620, 48 h, read-out: Activity
# [18] = test system: NCI-H23; experiment: Growth inhibition of human NCI-H23 cells assessed as cell growth at 10 uM after 48 hrs by SRB assay relative to control; conditions: NCI-H23, 48 h, read-out: Activity
# [19] = test system: SK-MEL-28; experiment: Growth inhibition of human SK-MEL-28 cells assessed as cell growth at 0.01 uM after 48 hrs by SRB assay relative to control; conditions: SK-MEL-28, 48 h, read-out: Activity
# [20] = test system: RXF 393; experiment: Growth inhibition of human RXF393 cells assessed as cell growth at 100 uM after 48 hrs by SRB assay relative to control; conditions: RXF 393, 48 h, read-out: Activity
# [21] = test system: HCT-116; experiment: Growth inhibition of human HCT116 cells assessed as cell growth at 0.1 uM after 48 hrs by SRB assay relative to control; conditions: HCT-116, 48 h, read-out: Activity
# [22] = test system: IGROV-1; experiment: Growth inhibition of human IGROV1 cells assessed as cell growth at 100 uM after 48 hrs by SRB assay relative to control; conditions: IGROV-1, 48 h, read-out: Activity
# [23] = test system: RPMI-8226; experiment: Growth inhibition of human RPMI8226 cells assessed as cell growth at 0.01 uM after 48 hrs by SRB assay relative to control; conditions: RPMI-8226, 48 h, read-out: Activity
# [24] = test system: SK-MEL-5; experiment: Growth inhibition of human SK-MEL-5 cells assessed as cell growth at 10 uM after 48 hrs by SRB assay relative to control; conditions: SK-MEL-5, 48 h, read-out: Activity
# [25] = test system: MDA-MB-435; experiment: Growth inhibition of human MDA-MB-435 cells assessed as cell growth at 0.01 uM after 48 hrs by SRB assay relative to control; conditions: MDA-MB-435, 48 h, read-out: Activity
# [26] = test system: SK-MEL-5; experiment: Growth inhibition of human SK-MEL-5 cells assessed as cell growth at 0.1 uM after 48 hrs by SRB assay relative to control; conditions: SK-MEL-5, 48 h, read-out: Activity
# [27] = test system: PC-3; experiment: Growth inhibition of human PC3 cells assessed as cell growth at 0.01 uM after 48 hrs by SRB assay relative to control; conditions: PC-3, 48 h, read-out: Activity
# [28] = test system: NCI-H322M; experiment: Growth inhibition of human NCI-H322M cells assessed as cell growth at 0.01 uM after 48 hrs by SRB assay relative to control; conditions: read-out: Activity
# [29] = test system: M14; experiment: Cytotoxicity against human M14 cells assessed as growth inhibition after 48 hrs by SRB assay; conditions: M14, 48 h
# [30] = test system: PC-3; experiment: Growth inhibition of human PC3 cells assessed as cell growth at 0.1 uM after 48 hrs by SRB assay relative to control; conditions: PC-3, 48 h, read-out: Activity
# [31] = test system: K562; experiment: Growth inhibition of human K562 cells assessed as cell growth at 1 uM after 48 hrs by SRB assay relative to control; conditions: K562, 48 h, read-out: Activity
# [32] = test system: MDA-MB-468; experiment: Growth inhibition of human MDA-MB-468 cells assessed as cell growth at 100 uM after 48 hrs by SRB assay relative to control; conditions: MDA-MB-468, 48 h, read-out: Activity
# [33] = test system: CCRF-CEM; experiment: Growth inhibition of human CCRF-CEM cells assessed as cell growth at 0.01 uM after 48 hrs by SRB assay relative to control; conditions: read-out: Activity
# [34] = test system: SF-268; experiment: Growth inhibition of human SF268 cells assessed as cell growth at 0.1 uM after 48 hrs by SRB assay relative to control; conditions: SF-268, 48 h, read-out: Activity
compound,measurement,setting,value
COc1ccc2c(c1)CCc1n[nH]c(-c3cc(OC)c(OC)c(OC)c3)c1-2,growth at 0.1 µM,[1],4%
same,growth at 0.01 µM,[2],-23%
same,growth at 0.01 µM,[3],41%
same,growth at 0.01 µM,[4],30%
same,growth at 10 µM,[5],35%
same,growth at 10 µM,[6],5%
same,growth at 100 µM,[7],-36%
same,growth at 100 µM,[8],-25%
same,growth at 0.01 µM,[9],-13%
same,growth at 10 µM,[10],31%
same,growth at 10 µM,[11],14%
same,growth at 1 µM,[12],4%
same,growth at 10 µM,[13],-15%
same,GI50,[14]; read-out: GI50,< 0.01 µM
same,CC50,[14]; read-out: LC50 (the source's name),> 100 µM
same,TGI,[14]; read-out: TGI,23.7 µM
same,GI50,[14]; read-out: pGI50 (converted),< 0.01 µM
same,CC50,[14]; read-out: pLC50 (the source's name) (converted),> 100 µM
same,TGI,[14]; read-out: pTGI (converted),24 µM
same,growth at 0.01 µM,[15],4%
same,growth at 1 µM,[16],-24%
same,growth at 0.01 µM,[17],16%
same,growth at 10 µM,[18],-6%
same,growth at 0.01 µM,[19],53%
same,growth at 100 µM,[20],-68%
same,growth at 0.1 µM,[21],3%
same,growth at 100 µM,[22],-33%
same,growth at 0.01 µM,[23],45%
same,growth at 10 µM,[24],-21%
same,growth at 0.01 µM,[25],-45%
same,growth at 0.1 µM,[26],-26%
same,growth at 0.01 µM,[27],20%
same,growth at 0.01 µM,[28],47%
same,GI50,[29]; read-out: GI50,< 0.01 µM
same,LC50,[29]; read-out: LC50,58.7 µM
same,TGI,[29]; read-out: TGI,10.9 µM
same,GI50,[29]; read-out: pGI50 (converted),< 0.01 µM
same,LC50,[29]; read-out: pLC50 (converted),58.9 µM
same,TGI,[29]; read-out: pTGI (converted),11 µM
same,growth at 0.1 µM,[30],19%
same,growth at 1 µM,[31],18%
same,growth at 100 µM,[32],-39%
same,growth at 0.01 µM,[33],38%
same,growth at 0.1 µM,[34],30%

# Reference: ChEMBL document CHEMBL4346757, “Synthesis and biological evaluation of 7-methoxy-1-(3,4,5-trimethoxyphenyl)-4,5-dihydro-2H-benzo[e]indazoles as new colchicine site inhibitors” (Bioorg Med Chem Lett, 2019)
